Experimental data as given in patent US20220096515A1, “Methods and Formulations for Preventing Neurological or Psychiatric Disorders” (Huntington Medical Research Institutes, priority 2020, published 2022).

Experiments:
Assay type in all cases: in vivo, mouse
GAD65-GFP knock in mice = assay: E12-E17 NAD+ injection paradigm in GAD65-GFP knock in mice; settings: E18, vs NAD^+-untreated group
Source text: Animals: Timed pregnant CD1 mice were purchased from Charles River laboratories, MA. Colonies of GAD65-GFP mice were maintained in our institutional animal facility. Tie2-cre mice and Gabrb3 floxed (Gabrb3^fl/fl) mice were obtained from Jackson Labs. The Tie2-cre transgene is known for uniform expression of cre-recombinase in endothelial cells during embryogenesis and adulthood. To selectively delete Gabrb3 in endothelial cells, Tie2-cre transgenic mice (males) were crossed to Gabrb3^fl/fl mice (females) to generate Tie2-cre; Gabrb3^fl/+ mice (males). These were further crossed with Gabrb3^fl/fl mice (females) to obtain the Gabrb3 conditional knock-outs (Tie2-cre; Gabrb3^fl/fl mice). The day of plug discovery was designated embryonic day 0 (E0). Animal experiments were in full compliance with the NIH Guide for Care and Use of Laboratory Animals and were approved by the HMRI and McLean Institutional Animal Care Committees.
To test if the prenatal NAD^+ treatment was able to influence GABAergic neuronal migration, an in vitro neuronal migration assay was performed (FIG. 6M), after the in vivo NAD^+ treatment paradigm (E12-E17). […] This aspect was further explored by using the E12-E17 NAD^+ injection paradigm in GAD65-GFP knock in mice (FIGS. 6P-6T). Images of GFP^+ cells that had entered the dorsal telencephalon at E18 were collected and analyzed. […]

[1] = system: Gabrb3^ECKO telencephalon; assay: Microarray gene expression profile of MGE and striatal tissue at E18
Description: Gene expression profile analysis: RNA samples were prepared from saline-treated Gabrb3^fl/fl, saline-treated Gabrb3^ECKO and NAD^+-treated Gabrb3^ECKO groups from three different brain pools. Total RNA from each of the samples was extracted by using the PicoPure RNA Isolation kit (Arcturus) following the supplier's protocol. Microarray was performed with Mouse Gene 2.0 ST Array (Affymetrix) at the Boston University Microarray & Sequencing Resource, Boston, MA. Mouse Gene 2.0 ST CEL files were normalized to produce gene-level expression values using the implementation of the Robust Multiarray Average (RMA) in the affy package (version 1.36.1) included in the Bioconductor software suite (version 2.11). Principal component analysis (PCA) was analyzed and visualized using Transcriptome Analysis Console 4.0 (Affymetrix). Heatmap visualization and analysis were performed using Morpheus (Broad Institute, Boston, Mass., USA; software.broadinstitute.org/GENE-E/), and ranked by t-test statistics. Violin plot visualization was generated with Z-score using GraphPad Prism v8.0 (GraphPad Software, La Jolla Calif. USA). The gene ontology for gene enrichment study was performed in three GO TERM annotation categories by using the Database for Annotation, Visualization and Integrated Discovery (DAVID) v6.8. Mouse Genome Informatics (MGI) (GO TERM structure categories: cerebral cortex interneuron migration; GABAergic neuron differentiation; interneuron development; MGE derived cells).
In this exemplary embodiment, to gain deeper insights into NAD^+ mediated specific actions in the subcortical telencephalon, a micro-dissection of the MGE and striatal tissue from telencephalic slices of saline-treated Gabrb3^fl/fl mice, saline-treated Gabrb3^ECKO mice, and NAD^+-treated Gabrb3^ECKO mice at E18 was performed. RNA was further extracted, and microarray hybridization on Mouse Gene 2.0 ST arrays (Affymetrix) was performed for Subsequent gene expression analysis (FIG. 7A). Principal component analysis (PCA) plots depicted strict clustering of triplicates from the three samples in the 3D PCA table (FIG. 8A). Differentially expressed genes (fold change cut off ≥+/−50%) in the three groups were compared and represented as heat maps (FIGS. 7B-7C). […] Genes were further classified into specific categories that are essential for embryonic forebrain development: angiogenesis, neurogenesis, GABA signaling and GABA transcription related genes, and the top differentially expressed genes in each category are shown (FIGS. 9A-9E). […] Additionally, differential expression of 10 marker genes in angiogenesis and GABAergic neuron categories in saline-treated Gabrb3^fl/fl, saline-treated Gabrb3^ECKO, and NAD^+-treated Gabrb3^ECKO groups were represented as violin plots (FIGS. 7D-7G).

[2] = system: Gabrb3^ECKO endothelial cells; assay: GABA immunostaining and cluster formation of endothelial cells after prenatal treatment
Description: Primary culture of endothelial cells and endothelial cell staining: Embryonic brains were dissected under a stereo-microscope, after the NAD^+ treatment paradigm and the telencephalon was removed. Pial membranes were peeled off. Telencephalon without pial membranes from the periventricular region was pooled. Purity of endothelial cell cultures was established with endothelial cell markers and determined to be one hundred percent. Isolation and culture of endothelial cells were performed according to published methodology. Periventricular endothelial cells were prepared from CD1 (wild type), saline-treated Gabrb3^fl/fl, saline-treated Gabrb3^ECKO, and NAD^+-treated Gabrb3^ECKO embryos. Endothelial cells were labeled with anti-biotinylated isolectinB4 (1:100, Sigma), anti-GABA (1:400, Sigma), anti-DAXX (1:100, Santa Cruz Biotechnology) and anti-P2X4 (1:100, Abclonal) followed by secondary detection with AlexaFluor conjugates (Invitrogen). DAPI (Invitrogen) was used to label nuclei. Images were taken on an FSX100 microscope (Olympus). 1 million cells were examined for each immunohistochemistry condition.
Endothelial cell derived GABA plays dual roles in the embryonic forebrain. […]

[3] = system: Gabrb3^ECKO endothelial cells; assay: GABA secretion by ELISA after prenatal treatment
Description: ELISA: Periventricular endothelial cells were prepared after the NAD^+ treatment paradigm, or after the treatment with purinergic receptor agonists/antagonists, and seeded in 12 well culture plates at 0.1×10^6 cells/well. Supernatants from endothelial cell cultures were collected after 96 hours and stored at −80° C. for ELISA. GABA concentrations were quantitatively determined by competitive ELISA according to the manufacturers' protocol (GABA Research ELISA kits, Labor Diagnostica Nord, Germany), and absorbance was measured using a multiplate microplate fluorescence reader (Molecular Devices, CA) at 450 nm.
Endothelial cell derived GABA plays dual roles in the embryonic forebrain. It not only activates a positive feedback cycle in endothelial cells that stimulates angiogenesis, but also is an essential chemo-attractive and guidance cue for promotion of long-distance migration of GABAergic interneurons. […] Since, Gad1 and Gad2 were rescued in Gabrb3^ECKO endothelial cells by the prenatal NAD^+ treatment (FIGS. 10H-10I), it was tested whether GABA expression was rescued in Gabrb3^ECKO endothelial cells (FIGS. 11A-11C). Control endothelial cells typically form tight networks or clusters under normal culture conditions. […] Next, we investigated the secretion of GABA by ELISA in the three groups. […]

NC(=O)c1ccc[n+]([C@@H]2O[C@H](COP(=O)([O-])OP(=O)(O)OC[C@H]3O[C@@H](n4cnc5c(N)ncnc54)[C@H](O)[C@@H]3O)[C@@H](O)[C@H]2O)c1 [NAD^+]
percentage of GFP^+ cells in dorsal telencephalon (GAD65-GFP knock in mice): significant increase in the percentage of GFP^+ cells
GABA neuronal subtype and development genes downregulated in Gabrb3^ECKO (Calb2, Sst, Calb1, Sirt2, Ascl1, Nr2f2, Bdnf, Arx, Sox2) ([1]; E18): rescued
GABAergic pathway regulatory and axon guidance genes upregulated in Gabrb3^ECKO (Dlx4, Sirt1, Drp2, Foxg1, Daxx, Ablim1, Nrg3) ([1]; E18): restored to normal expression levels
angiogenesis genes downregulated in Gabrb3^ECKO (Fgfr3, Thbs1, Serpinf1, Tbx1, Angpt1, Mdk, Plxdc1, Efna1, Tspan12) ([1]; E18): restored to normal levels
genes related to inflammation (upregulated in saline-treated Gabrb3^ECKO) ([1]; E18): restored to normal levels
vascular/angiogenesis genes upregulated in Gabrb3^ECKO (Fgf6, Flt1, Hand2, Egf, Itgb3, Plg, Epas1, Bai1, Col4a3, Eng) ([1]; E18): restored to normal expression levels
purinergic receptor signaling genes (microarray) ([1]; vs saline-treated Gabrb3^ECKO group): notable change in purinergic receptor signaling genes
gene expression profile (heat map clusters) ([1]; vs saline-treated Gabrb3^ECKO, fold change cut off ≥+/−50%): shift in the gene expression profile
GABA expression (immunohistochemistry) [2]: GABA expression was also restored
endothelial cell cluster formation [2]: significantly improved cluster formation
GABA secretion (ELISA) [3]: rescued
